Assay results taken from article PMC4386733 (Cell, 2013).
Entries after “also recorded” stand apart in the source; their conditions may differ. One block for each molecule: values may come before it.

Legend:
THP1 cells = assay: CXCL10 ELISA in THP1 cells after cGAMP stimulation; type: cell-based, human; settings: for EC50 comparison: Digitonin-mediated permeabilization
hSTING^R232 [1] = target: T1, hSTING^R232 (Homo sapiens, UniProt Q86WV6, H232R); settings: ITC, Chen laboratory; ref Zhang et al., 2013; cited from earlier work
T1 sequence (Q86WV6 whole entry H232R, the tested form may be a part): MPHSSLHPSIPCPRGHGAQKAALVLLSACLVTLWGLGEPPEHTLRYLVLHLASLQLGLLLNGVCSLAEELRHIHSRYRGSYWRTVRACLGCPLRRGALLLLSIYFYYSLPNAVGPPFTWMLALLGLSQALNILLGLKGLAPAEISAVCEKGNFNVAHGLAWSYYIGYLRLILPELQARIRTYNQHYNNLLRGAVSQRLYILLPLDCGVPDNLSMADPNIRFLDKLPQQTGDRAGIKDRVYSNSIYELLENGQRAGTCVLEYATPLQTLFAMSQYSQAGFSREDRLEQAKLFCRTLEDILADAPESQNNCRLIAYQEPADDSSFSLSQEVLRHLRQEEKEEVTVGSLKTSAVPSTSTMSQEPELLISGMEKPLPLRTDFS

hSTING^H232 (aa 140–379) = hSTING^H232 (aa 140–379) (Homo sapiens, UniProt Q86WV6, H232R); assay: ITC binding to hSTING^H232; settings: complex printed as hSTING^H232 in b72 (Figure 4C)
Sequence of hSTING^H232 (aa 140–379) (Q86WV6 140-379 H232R): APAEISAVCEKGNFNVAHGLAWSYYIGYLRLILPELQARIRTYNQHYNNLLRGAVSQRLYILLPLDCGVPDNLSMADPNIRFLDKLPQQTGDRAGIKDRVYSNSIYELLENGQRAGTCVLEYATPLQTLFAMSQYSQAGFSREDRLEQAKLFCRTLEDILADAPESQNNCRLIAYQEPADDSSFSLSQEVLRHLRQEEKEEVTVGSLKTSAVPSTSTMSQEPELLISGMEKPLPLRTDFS

hSTING^H232 = hSTING^H232 (Homo sapiens, UniProt Q86WV6); assay: IFNB1 luciferase reporter in HEK293T cells, hSTING^H232; settings: cGAMP isomers and c[di-GMP] with digitonin, DMXAA in medium
Sequence of hSTING^H232 (Q86WV6 whole entry): as the sequence (Q86WV6 whole entry H232R, the tested form may be a part) above, with R232H counted along it

hSTING^R232/A162 = hSTING^R232/A162 (Homo sapiens, UniProt Q86WV6, H232R/S162A); assay: ITC binding to hSTING^R232/A162
Sequence of hSTING^R232/A162 (Q86WV6 140-379 S162A/H232R): as the sequence (Q86WV6 140-379 H232R) above, with S23A counted along it

hSTING S162I mutant = hSTING S162I mutant (Homo sapiens, UniProt Q86WV6, S162I); assay: IFNB1 luciferase reporter in HEK293T cells, hSTING S162I; type: cell-based; settings: HEK293T cellular assay
Sequence of hSTING S162I mutant (Q86WV6 whole entry S162I): as the sequence (Q86WV6 whole entry H232R, the tested form may be a part) above, with S162I, R232H counted along it

mSting = settings: ref Conlon et al., 2013; cited from earlier work
hSTING = settings: ref Conlon et al., 2013; cited from earlier work
[2] = target: hSTING^H232/A162 (S162A mutant) (Homo sapiens, UniProt Q86WV6, S162A); assay: ITC binding to S162A mutant of hSTING^H232
Sequence of hSTING^H232/A162 (S162A mutant) (Q86WV6 140-379 S162A): as the sequence (Q86WV6 140-379 H232R) above, with S23A, R93H counted along it

BMDMs = assay: Western blot of Tbk1 and Irf3 phosphorylation in BMDMs; type: cell-based, mouse; settings: 2 and 4 hr after treatment, compared to the two other isomers
[3] = system: bone-marrow-derived macrophages (BMDMs); settings: 20 µM added to medium, 4 hr, relative to mock treatment
hSTING^R232 [4] = target: T1, hSTING^R232; assay: IFNB1 luciferase reporter in HEK293T cells, hSTING^R232; settings: digitonin delivery
hSTING^THP1 = hSTING^THP1 (Homo sapiens, UniProt Q86WV6, G230A/H232R/H72R/R293Q); assay: IFNB1 luciferase reporter in HEK293T cells, hSTING^THP1; settings: digitonin delivery, c[di-GMP] 5 and 10 µM
Sequence of hSTING^THP1 (Q86WV6 whole entry H72R/G230A/H232R/R293Q): as the sequence (Q86WV6 whole entry H232R, the tested form may be a part) above, with H72R, G230A, R293Q counted along it

[5] = addition to medium without Digitonin, 18 hr

- binding (ITC) (hSTING^R232/A162; 25°C): binding
- stoichiometry N value of binding curve (hSTING^R232/A162; expected 1): ~1.5
- IFN induction (hSTING S162I mutant): IFN induction was not observed
- binding (ITC) ([2]; 25°C): binding
- stoichiometry N value of binding curve ([2]; expected 1): ~1.5
- IFN reporter response (hSTING^H232): nonresponsive
SMILES: Cc1ccc2c(=O)c3cccc(CC(=O)O)c3oc2c1C [DMXAA, 5,6-dimethylxanthenone-4-acetic acid]
- activation of mSting (mSting): activates mSting
- effect on hSTING (hSTING): no effect on hSTING

- EC50 comparison (THP1 cells): no difference in the EC50 values
SMILES: Nc1nc2c(ncn2[C@@H]2O[C@@H]3COP(=O)(O)O[C@H]4[C@@H](O)[C@H](n5cnc6c(N)ncnc65)O[C@@H]4COP(=O)(O)O[C@@H]2[C@@H]3O)c(=O)[nH]1 [c[G(2′,5′)pA(3′,5′)p]]

The remaining lines, values behind:

SMILES: Nc1nc2c(ncn2[C@@H]2O[C@@H]3COP(=O)(O)O[C@@H]4[C@H](O)[C@@H](COP(=O)(O)O[C@@H]2[C@@H]3O)O[C@H]4n2cnc3c(N)ncnc32)c(=O)[nH]1
- EC50 comparison (THP1 cells): no difference in the EC50 values
- stimulation more effective than c[G(2′,5′)pA(3′,5′)p] (THP1 cells; [5]): 2.9 fold
- stimulation more effective than c[G(3′,5′)pA(3′,5′)p] (THP1 cells; [5]): 4.8 fold
- Kd (hSTING^R232 [1]): 280 nM
- Kd (hSTING^H232 (aa 140–379)): 170 nM
- IFN reporter response (hSTING^H232): no significant differences in stimulation

SMILES: Nc1nc2c(ncn2[C@@H]2O[C@@H]3COP(=O)(O)O[C@H]4[C@@H](O)[C@H](n5cnc6c(N)ncnc65)O[C@@H]4COP(=O)(O)O[C@H]3[C@H]2O)c(=O)[nH]1 [c[G(3′,5′)pA(3′,5′)p]]
- Tbk1 and Irf3 protein phosphorylation (BMDMs): highest levels of Tbk1 and Irf3 protein phosphorylation
- Ccl5 mRNA level increase [3]: 38 fold
- Ifnb1 mRNA level increase [3]: 1024 fold
- Il6 mRNA level increase [3]: 2624 fold

SMILES: Nc1nc2c(ncn2[C@@H]2O[C@@H]3COP(=O)(O)O[C@H]4[C@@H](O)[C@H](n5cnc6c(=O)[nH]c(N)nc65)O[C@@H]4COP(=O)(O)O[C@H]3[C@H]2O)c(=O)[nH]1 [c[di-GMP]]
- IFN reporter response (hSTING^H232): nonresponsive
- IFN reporter response (hSTING^R232 [4]): residual response to high concentrations of c[di-GMP]
- IFN reporter response (hSTING^THP1): residual response to high concentrations of c[di-GMP]; also recorded: reduced IFN-pathway activation
